The values that follow come from patent US9428504B2, “7-hydroxy-spiropipiperidine indolinyl antagonists of P2Y1 receptor” (BRISTOL-MYERS SQUIBB COMPANY, priority 2012, dated 2016).

Test [1] concerns the target cloned human P2Y1 receptors (Homo sapiens (Human), UniProt P47900). The experiment in a line: Binding Assay B: Scintillation Proximity Assay (SPA) for P2Y1 binding. As to conditions: SPA, [33P] 2MeS-ADP displacement; read-out: P2Y1 Ki (nM) using binding assay B. Summed up: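 Scintillation proximity readout of 0.3 nM [^33P] tracer displacement from receptor membranes (~15 fmol receptor, 1.7 μg protein). Binding ran 1 h at room temperature to completion; plates were then centrifuged and aqueous phase aspirated before counting.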

Test [2] deals with human platelet rich plasma (PRP). Description: ADP induced platelet aggregation assay. To be noted: Homo sapiens, Platelet, read-out: PA IC50 (μM) @ 10 μM ADP, platelet aggregation induced by 10 μM ADP, human PRP.

For orientation: Ki means the equilibrium dissociation constant of an inhibitor or competing ligand from its target. One may read the IC50 as the concentration needed to halve the response being measured.

cloned human P2Y1 receptors, sequence (P47900 whole entry): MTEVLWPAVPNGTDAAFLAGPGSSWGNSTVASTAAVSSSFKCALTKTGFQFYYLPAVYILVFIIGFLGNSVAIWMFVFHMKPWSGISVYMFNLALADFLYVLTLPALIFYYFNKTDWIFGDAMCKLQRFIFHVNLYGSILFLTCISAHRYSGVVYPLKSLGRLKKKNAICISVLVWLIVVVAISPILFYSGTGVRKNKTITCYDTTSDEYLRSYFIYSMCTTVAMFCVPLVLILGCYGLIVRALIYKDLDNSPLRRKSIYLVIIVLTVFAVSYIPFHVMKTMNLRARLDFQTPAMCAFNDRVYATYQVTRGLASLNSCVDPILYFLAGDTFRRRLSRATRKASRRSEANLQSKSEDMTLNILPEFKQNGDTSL

For `CC(C)(C)CN1CCC2(CC1)CN(c1ccccc1NC(=O)Nc1nc3ccc(Cl)nc3s1)c1c(O)ccc(-c3nc4cc(F)ccc4s3)c12` [Example 126, 1-(5-Chlorothiazolo[5,4-b]pyridin-2-yl)-3-(2-(4-(5-fluorobenzo[d]thiazol-2-yl)-7-hydroxy-1′-neopentylspiro[indoline-3,4′-piperidin]-1-yl)phenyl)urea], the Ki in test [1] was 13.1 nM. Further, the IC50 in test [2] is 0.4 µM.

In the case of `COc1ccc2nc(-c3ccc(O)c4c3C3(CCN(CC(C)(C)C)CC3)CN4c3ccccc3NC(=O)Nc3csc(Cl)n3)sc2c1` [Example 128, 1-(2-Chlorothiazol-4-yl)-3-(2-(7-hydroxy-4-(6-methoxybenzo[d]thiazol-2-yl)-1′-neopentylspiro[indoline-3,4′-piperidin]-1-yl)phenyl)urea], the Ki in test [1] stood at 8 nM. The concentration for half-maximal inhibition (IC50) in test [2] worked out at 0.2 µM.

As to `COc1ccc2nc(-c3ccc(O)c4c3C3(CCN(CC(C)(C)C)CC3)CN4c3ccccc3NC(=O)Nc3csc(C(F)(F)F)n3)sc2c1` [Example 129, 1-(2-(7-Hydroxy-4-(6-methoxybenzo[d]thiazol-2-yl)-1′-neopentylspiro[indoline-3,4′-piperidin]-1-yl)phenyl)-3-(2-(trifluoromethyl)thiazol-4-yl)urea], the Ki in test [1] is 8.7 nM. Moreover, in test [2], the IC50 was determined as 0.7 µM.

`COc1ccc2nc(-c3ccc(O)c4c3C3(CCN(CC(C)(C)C)CC3)CN4c3ccccc3NC(=O)Nc3ccc(OC(F)(F)F)cc3)sc2c1` [Example 130, 1-(2-(7-Hydroxy-4-(6-methoxybenzo[d]thiazol-2-yl)-1′-neopentylspiro[indoline-3,4′-piperidin]-1-yl)phenyl)-3-(4-(trifluoromethoxy)phenyl)urea]: the Ki in test [1] worked out at 16.8 nM. Moreover, the IC50 in test [2] was found to be 0.6 µM.

`COc1ccc2nc(-c3ccc(O)c4c3C3(CCN(CC(C)(C)C)CC3)CN4c3ccccc3NC(=O)Nc3nc4ccc(Cl)cc4s3)sc2c1` [Example 131, 1-(6-Chlorobenzo[d]thiazol-2-yl)-3-(2-(7-hydroxy-4-(6-methoxybenzo[d]thiazol-2-yl)-1′-neopentylspiro[indoline-3,4′-piperidin]-1-yl)phenyl)urea]: the Ki in test [1] turned out to be 22.5 nM. Also, in test [2], the IC50 stood at 1 µM.

As to `CC(C)(C)CN1CCC2(CC1)CN(c1ccccc1NC(=O)Nc1csc(C(F)(F)F)n1)c1c(O)ccc(-c3nc4ccc(F)cc4s3)c12` [Example 132, 1-(2-(4-(6-Fluorobenzo[d]thiazol-2-yl)-7-hydroxy-1′-neopentylspiro[indoline-3,4′-piperidin]-1-yl)phenyl)-3-(2-(trifluoromethyl)thiazol-4-yl)urea], in test [1], the Ki is 12.4 nM. Further, in test [2], the IC50 was 0.7 µM.

For `CC(C)(C)CN1CCC2(CC1)CN(c1ccccc1NC(=O)Nc1ccc(OC(F)(F)F)cc1)c1c(O)ccc(-c3nc4cc(F)ccc4s3)c12` [Example 135, 1-(2-(4-(5-Fluorobenzo[d]thiazol-2-yl)-7-hydroxy-1′-neopentylspiro[indoline-3,4′-piperidin]-1-yl)phenyl)-3-(4-(trifluoromethoxy)phenyl)urea], the Ki in test [1] came out at 21.7 nM. Besides, in test [2], the IC50 was determined as 0.6 µM.

Consider `CC(C)(C)CN1CCC2(CC1)CN(c1ccccc1NC(=O)Nc1ccc(OC(F)(F)F)cc1)c1c(O)cc(F)c(-c3nc4cc(Cl)ccc4s3)c12` [Example 137, 1-(2-(4-(5-Chlorobenzo[d]thiazol-2-yl)-5-fluoro-7-hydroxy-1′-neopentylspiro[indoline-3,4′-piperidin]-1-yl)phenyl)-3-(4-(trifluoromethoxy)phenyl)urea], for which the Ki in test [1] was determined as 44.7 nM. For the same molecule, the IC50 in test [2] came to 0.4 µM.

Regarding `CC(C)(C)CN1CCC2(CC1)CN(c1ccccc1NC(=O)Nc1nc3ccc(F)cc3s1)c1c(O)ccc(-c3nc4cc(F)ccc4s3)c12` [Example 138, 1-(6-Cluorobenzo[d]thiazol-2-yl)-3-(2-(4-(5-fluorobenzo[d]thiazol-2-yl)-7-hydroxy-1′-neopentylspiro[indoline-3,4′-piperidin]-1-yl)phenyl)urea], in test [1], the Ki stood at 24.6 nM. Further, in test [2], the IC50 was found to be 0.2 µM.

Regarding `CC(C)(C)CN1CCC2(CC1)CN(c1ccccc1NC(=O)Nc1nc3ccc(F)cc3s1)c1c(O)cc(F)c(-c3nc4cc(Cl)ccc4s3)c12` [Example 140, 1-(2-(4-(5-Chlorobenzo[d]thiazol-2-yl)-5-fluoro-7-hydroxy-1′-neopentylspiro[indoline-3,4′-piperidin]-1-yl)phenyl)-3-(6-fluorobenzo[d]thiazol-2-yl)urea], the Ki in test [1] came out at 52.4 nM. The IC50 in test [2] is 0.6 µM.

For `CC(C)(C)CN1CCC2(CC1)CN(c1ccccc1NC(=O)Nc1nc3ccc(Cl)cc3s1)c1c(O)cc(F)c(-c3nc4cc(Cl)ccc4s3)c12` [Example 141, 1-(6-Chlorobenzo[d]thiazol-2-yl)-3-(2-(4-(5-chlorobenzo[d]thiazol-2-yl)-5-fluoro-7-hydroxy-1′-neopentylspiro[indoline-3,4′-piperidin]-1-yl)phenyl)urea], the Ki in test [1] amounted to 33.9 nM. Also, the half-inhibitory concentration (IC50) in test [2] was 0.9 µM.

In the case of `CC(C)(C)CN1CCC2(CC1)CN(c1ccccc1NC(=O)Nc1nc3ccc(Cl)nc3s1)c1c(O)ccc(-c3nc4ccc(F)cc4s3)c12` [Example 144, 1-(5-Chlorothiazolo[5,4-b]pyridin-2-yl)-3-(2-(4-(6-fluorobenzo[d]thiazol-2-yl)-7-hydroxy-1′-neopentylspiro[indoline-3,4′-piperidin]-1-yl)phenyl)urea], the inhibitory constant (Ki) in test [1] is 13 nM. Further, the IC50 in test [2] turned out to be 0.7 µM.

Turning to `CC(C)(C)CN1CCC2(CC1)CN(c1ccccc1NC(=O)Nc1nc3ccc(Cl)cc3s1)c1c(O)ccc(-c3nc4ccc(F)cc4s3)c12` [Example 145, 1-(6-Chlorobenzo[d]thiazol-2-yl)-3-(2-(4-(6-fluorobenzo[d]thiazol-2-yl)-7-hydroxy-1′-neopentylspiro[indoline-3,4′-piperidin]-1-yl)phenyl)urea], the Ki in test [1] was determined as 18.4 nM. The IC50 in test [2] was 0.6 µM.

`COc1ccc2nc(NC(=O)Nc3ccccc3N3CC4(CCN(CC(C)(C)C)CC4)c4c(-c5nc6cc(F)ccc6s5)ccc(O)c43)sc2c1` [Example 146, 1-(2-(4-(5-Fluorobenzo[d]thiazol-2-yl)-7-hydroxy-1′-neopentylspiro[indoline-3,4′-piperidin]-1-yl)phenyl)-3-(6-methoxybenzo[d]thiazol-2-yl)urea]: the Ki in test [1] came out at 11.2 nM. Further, the IC50 in test [2] is 0.6 µM.

With `CC(C)(C)CN1CCC2(CC1)CN(c1ccccc1NC(=O)Nc1ccc(OC(F)(F)F)cc1)c1c(O)cc(F)c(-c3nc4ccc(F)cc4s3)c12` [Example 147, 1-(2-(5-Fluoro-4-(6-fluorobenzo[d]thiazol-2-yl)-7-hydroxy-1′-neopentylspiro[indoline-3,4′-piperidin]-1-yl)phenyl)-3-(4-(trifluoromethoxy)phenyl)urea], the Ki in test [1] amounted to 14.8 nM. In test [2], the IC50 came out at 0.5 µM.

With `CC(C)(C)CN1CCC2(CC1)CN(c1ccccc1NC(=O)Nc1nc3ccc(Cl)cc3s1)c1c(O)ccc(-c3nc4cc(Cl)ccc4s3)c12` [Example 149, 1-(6-Chlorobenzo[d]thiazol-2-yl)-3-(2-(4-(5-chlorobenzo[d]thiazol-2-yl)-7-hydroxy-1′-neopentylspiro[indoline-3,4′-piperidin]-1-yl)phenyl)urea], the Ki in test [1] amounted to 26.8 nM. Also, the IC50 in test [2] was found to be 0.9 µM.

Turning to `COc1ccc2nc(NC(=O)Nc3ccccc3N3CC4(CCN(CC(C)(C)C)CC4)c4c(-c5nc6cc(Cl)ccc6s5)ccc(O)c43)sc2c1` [Example 150, 1-(2-(4-(5-Chlorobenzo[d]thiazol-2-yl)-7-hydroxy-1′-neopentylspiro[indoline-3,4′-piperidin]-1-yl)phenyl)-3-(6-methoxybenzo[d]thiazol-2-yl)urea], the Ki in test [1] was 33.4 nM. Besides, in test [2], the IC50 came to 0.9 µM.

Regarding `CC(C)(C)CN1CCC2(CC1)CN(c1ccccc1NC(=O)Nc1nc3ccc(Cl)nc3s1)c1c(O)cc(F)c(-c3ccc(F)cc3)c12` [Example 152], in test [1], the Ki turned out to be 10.2 nM. Further, in test [2], the 50% inhibitory concentration (IC50) was found to be 0.2 µM.

For the molecule `CC(C)(C)CN1CCC2(CC1)CN(c1ccccc1NC(=O)Nc1ccc(OC(F)(F)F)cc1)c1c(O)c(F)cc(-c3ccc(F)cc3)c12` [Example 153, 1-(2-(6-Fluoro-4-(4-fluorophenyl)-7-hydroxy-1′-neopentylspiro[indoline-3,4′-piperidin]-1-yl)phenyl)-3-(4-(trifluoromethoxy)phenyl)urea], in test [1], the Ki was 11.5 nM. For the same molecule, in test [2], the IC50 is 0.4 µM.

Consider `CC(C)(C)CN1CCC2(CC1)CN(c1ccccc1NC(=O)Nc1ccc(OC(F)(F)F)cc1)c1c(O)c(F)cc(-c3ccc(C(F)(F)F)cc3)c12` [Example 154, 1-(2-(6-Fluoro-7-hydroxy-1′-neopentyl-4-(4-(trifluoromethyl)phenyl)spiro[indoline-3,4′-piperidine]-1-yl)phenyl)-3-(4-(trifluoromethoxy)phenyl)urea], for which the Ki in test [1] was 38.8 nM. In addition, the IC50 in test [2] worked out at 0.4 µM.

For the molecule `CC(C)(C)CN1CCC2(CC1)CN(c1ccccc1NC(=O)Nc1ccc(OC(F)(F)F)cc1)c1c(O)cc(F)c(-c3ccc(F)cc3)c12` [Example 155, 1-(2-(5-Fluoro-4-(4-fluorophenyl)-7-hydroxy-1′-neopentylspiro[indoline-3,4′-piperidin]-1-yl)phenyl)-3-(4-(trifluoromethoxy)phenyl)urea], the Ki in test [1] amounted to 22.5 nM. Besides, the IC50 in test [2] came to 0.1 µM.

For `CC(C)(C)CN1CCC2(CC1)CN(c1ccccc1NC(=O)Nc1ccc(OC(F)(F)F)cc1)c1c(O)c(F)cc(-c3ccc(Cl)cc3)c12` [Example 156, 1-(2-(4-(4-Chlorophenyl)-6-fluoro-7-hydroxy-1′-neopentylspiro[indoline-3,4′-piperidin]-1-yl)phenyl)-3-(4-(trifluoromethoxy)phenyl)urea], the Ki in test [1] stood at 20.2 nM. For the same molecule, in test [2], the IC50 came out at 0.2 µM.
